# From PMC4222822, “Discovery and Characterization of a Potent and Selective Inhibitor of Aedes aegypti Inward Rectifier Potassium Channels” (PLoS ONE, 2014)
# Legend:
# mosquitoes = assay: Toxicity when applied to the cuticle (topical); format: in vivo; conditions: Piermarini, unpublished observations
# [1] = system: 68 mammalian GPCR's, ion channels, and transporters; assay: Radioligand displacement assays, panel of 68 targets; format: binding; conditions: 10 µM, active defined as >50% ligand displacement
# Kir2.2 = target: T1, Kir2.2 (Homo sapiens, UniProt Q14500); assay: Tl+ flux selectivity assay, Kir2.2; format: cell-based; conditions: n = 2 independent experiments in triplicate, read-out: Inhibition of Tl+ flux (IC50)
# T1 construct: expressed in transfected cells
# T1 sequence (Q14500 1-433): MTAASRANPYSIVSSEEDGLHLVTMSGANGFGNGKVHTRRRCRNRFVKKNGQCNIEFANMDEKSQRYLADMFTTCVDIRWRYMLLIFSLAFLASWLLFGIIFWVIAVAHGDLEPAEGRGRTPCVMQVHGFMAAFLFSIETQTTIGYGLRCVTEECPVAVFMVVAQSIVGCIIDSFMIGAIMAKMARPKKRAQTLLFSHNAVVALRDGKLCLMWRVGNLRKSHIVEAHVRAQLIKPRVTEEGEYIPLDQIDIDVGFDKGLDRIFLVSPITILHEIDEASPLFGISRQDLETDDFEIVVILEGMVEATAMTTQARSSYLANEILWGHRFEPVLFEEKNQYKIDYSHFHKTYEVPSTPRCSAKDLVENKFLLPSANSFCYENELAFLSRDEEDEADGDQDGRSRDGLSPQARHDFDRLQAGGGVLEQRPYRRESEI
# Method: [Worded in the source for another target; used here, by the source, with some conditions changed.] Tl^+ flux assays were performed essentially as described previously, [18], [19]. Briefly, stably transfected T-Rex-HEK-293 cells expressing AeKir1 channels were cultured overnight in 384-well plates (20,000 cells/20 µL/well black-walled, clear-bottomed BD PureCoat amine-coated plates (BD, Bedford, MA) with a plating media containing DMEM, 10% dialyzed FBS and 1 µg/mL tetracycline. The next day, the cell culture medium was replaced with a dye-loading solution containing assay buffer (Hanks Balanced Salt Solution with 20 mM HEPES, pH 7.3), 0.01% (w/v) Pluronic F-127 (Life Technologies, Carlsbad, CA), and 1.2 µM of the thallium-sensitive dye Thallos-AM (TEFlabs, Austin, TX). Following 1 hr incubation at room temperature, the dye-loading solution was washed from the plates and replaced with 20 µL/well of assay buffer. […] Tl^+ flux data were analyzed as previously described, [21], [22] using a combination of Excel (Microsoft Corp, Redmond, WA) with XLfit add-in (IDBS, Guildford, Surrey, UK) and OriginPro (OriginLab, Northampton, MA) software. […] The slope of the fluorescence increase beginning 5 s after Tl^+ addition and ending 15 s after Tl^+ addition was calculated.
# [2] = system: adult female mosquitoes (A. aegypti); assay: Mosquito toxicology experiments (hemolymph injection); format: in vivo, Aedes aegypti
# Method: The Aedes aegypti mosquito colony used in the present study is identical to that described previously. As before, only adult female mosquitoes 3–10 days post emergence were utilized for experiments.
# Adult female mosquitoes for injection were anesthetized on ice and impaled through the metapleuron using a pulled-glass capillary attached to a nanoliter injector (Nanoject II, Drummond Scientific Company, Broomall, PA). Each mosquito received a single hemolymph injection of 69 nL of solution. The injection solution consisted of a potassium-rich phosphate buffered saline (K^+-PBS), 15% DMSO, 1% β-cyclodextrin, 0.1% Solutol, and a concentration of VU625 to deliver the doses indicated. In experiments where probenecid was used, water-soluble probenecid (Biotium, Hayward CA) was included in the injection solution at 50 mM, thereby providing a dose of 3.4 nmol per mosquito.
# The K^+-PBS solution consisted of the following in mM: 92.2 NaCl, 47.5 KCl, 10 Na2HPO4, and 2 KH2PO4 (pH 7.5). A total of 10 mosquitoes were injected for a given treatment or dose, and then were placed into small cages within a rearing chamber (28°C, 80% relative humidity, 12∶12 light:dark) and allowed free access to a solution of 10% sucrose. […] For each treatment, 3–7 replicates of 10 mosquitoes each were performed.
# Prism (GraphPad Software) was used to generate a dose-response curve for the toxicity of VU625; the doses (x-axis) were first log transformed and then the mortality data was normalized using Prism, where the smallest value and largest values in a data set equal ‘0%’ and ‘100%’, respectively. The data were then fitted using a ‘biphasic’ algorithm (<100 constraint) to calculate potencies (ED25 and ED75 values). To compare 1) the toxic effects among the vehicle, probenecid, VU625, and VU625 + probenecid treatments, and 2) the excretory capacity among the vehicle, probenecid, VU625, and VU625 + probenecid treatments, one-way ANOVAs were performed with Newman-Keuls posttests.
# [3] = co-injected with probenecid 3.4 nmol per mosquito, mortality at 24 h post-injection, biphasic fit
smiles,measurement,setting,value
"CCC(=O)N1c2ccc(S(=O)(=O)Nc3cccc(OC)c3)cc2CC1C (centres unmarked) [VU625, N-(3-methoxyphenyl)-2-methyl-1-propionylindoline-5-sulfonamide]",toxicity when applied to the cuticle,mosquitoes,lack of topical activity
same,activity in radioligand displacement panel,[1],against only three targets
same,IC50,Kir2.2,> 30 µM
same,effect on mosquito behavior or survival,"[2]; 690 pmol per mosquito, hemolymph injection, alone, 24 h",no significant effects on mosquito behavior or survival within 24 h
same,toxicity on co-injection with probenecid,"[2]; VU625 690 pmol + probenecid 3.4 nmol per mosquito, 24 h, vs VU625 or probenecid alone",significantly increases the toxicity of VU625 within 24 h
same,ED25 (mortality),[2]; [3],9.96 pmol
same,ED75 (mortality),[2]; [3],502 pmol
same,efficacy of VU625 with PBO,[2]; preliminary experiments with PBO,did not improve the efficacy
